{"source": "paper PMC6401476", "about": "“The Evolution of SlyA/RovA Transcription Factors from Repressors to Countersilencers in Enterobacteriaceae” (mBio, 2019)", "molecules": {"B1": {"name": "SlyA of Salmonella enterica serovar Typhimurium (His-SlyA) (natural protein)", "chain": "ESPLGSDLARLVRIWRALIDHRLKPLELTQTHWVTLHNIHQLPPDQSQIQLAKAIGIEQPSLVRTLDQLEDKGLISRQTCASDRRAKRIKLTEKADALIAEMEEVIHKTRGEILAGISSEEIELLIKLIAKLEHNIMELHSHD", "notes": "SlyA, MarR family transcription factor, Salmonella enterica serovar Typhimurium; the tips of the wings are not seen in the model; Residue numbers in the text are based on an alignment of SlyA orthologs and are not in register with the numbers of the deposited PDB file 3DEU; Strains were built in the ATCC 14028s background; also called SlyASTM; SlyASTm; not shown: 6xHis, N-terminal, kept"}}, "key": {"SlyA [1]": {"target": "T1, SlyA (Salmonella enterica, UniProt P40676)", "T1 construct": "His-SlyA (N-terminal 6×His-tagged)", "T1 sequence (P40676 whole entry)": "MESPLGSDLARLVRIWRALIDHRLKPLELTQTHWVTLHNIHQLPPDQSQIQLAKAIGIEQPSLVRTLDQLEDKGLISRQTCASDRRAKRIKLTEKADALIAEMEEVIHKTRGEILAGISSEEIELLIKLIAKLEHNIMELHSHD", "test": "crystal structure at […] Å; 1H, […]-TROSY NMR; supported by in vitro transcription", "format": "binding"}, "SlyA [2]": {"target": "T1, SlyA", "test": "intrinsic tryptophan fluorescence quenching; 1H, […]-TROSY NMR", "format": "binding"}, "[3]": {"target": "the molecule itself", "test": "crystal structure; His-SlyA co-crystallised with 75 mM sodium salicylate; sitting-drop vapor diffusion, room temperature; 20% PEG 400, 10% glycerol, 0.1 M phosphate-citrate buffer pH 4.2, 0.2 M ammonium sulfate; space group P21212, two SlyA molecules in the asymmetric unit, each dimer completed by space group symmetry"}}}
{"molecule": "O=C(O)c1ccccc1O", "note": "[salicylate]", "values": [{"measurement": "crystal structure at 2.3 Å; 1H,15N-TROSY NMR; supported by in vitro transcriptio", "setting": "SlyA [1]", "value": "The crystal structure of the SlyA dimer with salicylate bound at sites I and II was determined"}]}
{"molecule": "O=C(O)c1ccccc1", "note": "[benzoate]", "values": [{"measurement": "Kd", "setting": "SlyA [2]", "value": "~40", "unit": "µM"}]}
{"molecule": "B1", "values": [{"measurement": "stoichiometry N", "setting": "[3]", "value": 2}]}
